From US20250129430A1, “HIGH ATP-AFFINITY PROTEIN AS THERAPEUTIC TARGET FOR INTRACTABLE CANCER MOLECULAR SUBTYPES AND INHIBITOR THEREOF” (VeraVerse Co., Ltd., priority 2021, published 2025)

Key:
Assay type in all cases: cell-based, human
[1] = test system: AGS; test: Cell viability drug screen, 12-point dose-response AUC; details: AGS cells; 72 hours; 12-point dose-response
Method in brief: (§1)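 Viability: luminescence (Glo kit, 15 min RT), normalized to 0.5% DMSO vehicle. Dosing: half-log, 12 concentrations, 72 h. Cells: 5×10^3/well, treated 24 h after plating. Value: trapezoidal AUC, mean of repeats.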

[2] = test system: Hs746T; test: as above; details: Hs746T cells; 72 hours; 12-point dose-response
Method in brief: as §1

[3] = test system: KATO3; test: as above; details: KATO3 cells; 72 hours; 12-point dose-response
Method in brief: as §1

[4] = test system: MKN1; test: as above; details: MKN1 cells; 72 hours; 12-point dose-response
Method in brief: as §1

[5] = test system: MKN28; test: as above; details: MKN28 cells; 72 hours; 12-point dose-response
Method in brief: as §1

[6] = test system: MKN45; test: as above; details: MKN45 cells; 72 hours; 12-point dose-response
Method in brief: as §1

[7] = test system: MKN74; test: as above; details: MKN74 cells; 72 hours; 12-point dose-response
Method in brief: as §1

[8] = test system: NCC19; test: as above; details: NCC19 cells; 72 hours; 12-point dose-response
Method in brief: as §1

[9] = test system: NCC20; test: as above; details: NCC20 cells; 72 hours; 12-point dose-response
Method in brief: as §1

[10] = test system: NCC24; test: as above; details: NCC24 cells; 72 hours; 12-point dose-response
Method in brief: as §1

[11] = test system: NCC59; test: as above; details: NCC59 cells; 72 hours; 12-point dose-response
Method in brief: as §1

[12] = test system: NCI_N87; test: as above; details: NCI_N87 cells; 72 hours; 12-point dose-response
Method in brief: as §1

[13] = test system: OCUM1; test: as above; details: OCUM1 cells; 72 hours; 12-point dose-response
Method in brief: as §1

[14] = test system: SK4; test: as above; details: SK4 cells; 72 hours; 12-point dose-response
Method in brief: as §1

[15] = test system: SNU16; test: as above; details: SNU16 cells; 72 hours; 12-point dose-response
Method in brief: as §1

[16] = test system: SNU1750; test: as above; details: SNU1750 cells; 72 hours; 12-point dose-response
Method in brief: as §1

[17] = test system: SNU1967; test: as above; details: SNU1967 cells; 72 hours; 12-point dose-response
Method in brief: as §1

[18] = test system: SNU1; test: as above; details: SNU1 cells; 72 hours; 12-point dose-response
Method in brief: as §1

[19] = test system: SNU216; test: as above; details: SNU216 cells; 72 hours; 12-point dose-response
Method in brief: as §1

[20] = test system: SNU484; test: as above; details: SNU484 cells; 72 hours; 12-point dose-response
Method in brief: as §1

[21] = test system: SNU601; test: as above; details: SNU601 cells; 72 hours; 12-point dose-response
Method in brief: as §1

[22] = test system: SNU620; test: as above; details: SNU620 cells; 72 hours; 12-point dose-response
Method in brief: as §1

[23] = test system: SNU638; test: as above; details: SNU638 cells; 72 hours; 12-point dose-response
Method in brief: as §1

[24] = test system: SNU668; test: as above; details: SNU668 cells; 72 hours; 12-point dose-response
Method in brief: as §1

[25] = test system: SNU719; test: as above; details: SNU719 cells; 72 hours; 12-point dose-response
Method in brief: as §1

[26] = test system: YCC11; test: as above; details: YCC11 cells; 72 hours; 12-point dose-response
Method in brief: as §1

[27] = test system: YCC2; test: as above; details: YCC2 cells; 72 hours; 12-point dose-response
Method in brief: as §1

[28] = test system: YCC3; test: as above; details: YCC3 cells; 72 hours; 12-point dose-response
Method in brief: as §1

[29] = test system: FU97; test: as above; details: FU97 cells; 72 hours; 12-point dose-response
Method in brief: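 Trapezoidal AUC of a 12-point, DMSO-normalized dose-response curve. Luminescent viability was measured after 72 h of exposure at 37° C to half-log serial dilutions (0.5% DMSO control), dosed 24 h after plating FU97 cells at 5×10^3 per well.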

[30] = test system: SEM-type gastric cancer cell line; test: Cell viability drug screen, AUC summary over SEM-type lines
Method: An FDA-approved small-molecule pharmacological compound (#L1300) and an anticancer compound for research (#L2000) were purchased from Selecckchem and a 10 mM solution was prepared in DMSO. A total of 1,345 compounds were tested the cell viability of the seven EMT gastric cancer cell lines.
Cells cultured for cell-based drug assay were inoculated into a 96-well white optical plate (Corning) at 5×10^3 cells per well. After 24 hours after inoculation, a 2.5 MJT (primary screen) or a half-log 12-serial diluent (secondary screen) of the pharmacological compound contained in DMSO is added to the cells with a robot using a BioMek FXp liquid processor (Beckman) to add to the cells at 50 mM. The final drug concentration in the 5 ns range and the DMSO specification control (0.5%) were calculated. The cells were then further incubated at 37° C. in a 5% CO2 incubator for 72 hours prior to measuring cell viability using the extra-GLO assay kit (Promega). The luminescent properties were measured after 15 min incubation at room temperature using a plate stacker equipped with a plate stacker. The normalized viability for the DMSO-based control was measured to generate a cell line-specific 12-point dose-response curve for each pharmacological compound, and then the area under the curve (AUC) was calculated using a trapezoidal method.

[31] = test system: non-SEM-type gastric cancer cell line; test: Cell viability drug screen, AUC summary over non-SEM-type lines; details: in the non-SEM-type gastric cancer cell line

COc1ncc(-c2ccc3nccc(-c4ccnnc4)c3c2)cc1NS(=O)(=O)c1ccc(F)cc1F [GSK2126458]
area under the viability curve (AUC), normalized [1]: −2.286
area under the viability curve (AUC), normalized [2]: −0.063
area under the viability curve (AUC), normalized [3]: 3.911
area under the viability curve (AUC), normalized [4]: −1.1278
area under the viability curve (AUC), normalized [5]: 0.15
area under the viability curve (AUC), normalized [6]: 0.05353
area under the viability curve (AUC), normalized [7]: 0
area under the viability curve (AUC), normalized [8]: 0.4665
area under the viability curve (AUC), normalized [9]: −1.107
area under the viability curve (AUC), normalized [10]: −1.197
area under the viability curve (AUC), normalized [11]: 2.2975
area under the viability curve (AUC), normalized [12]: −1.3463
area under the viability curve (AUC), normalized [13]: 1.227
area under the viability curve (AUC), normalized [14]: −2.466
area under the viability curve (AUC), normalized [15]: 0.6494
area under the viability curve (AUC), normalized [16]: −0.5071
area under the viability curve (AUC), normalized [17]: 1.044
area under the viability curve (AUC), normalized [18]: −0.6492
area under the viability curve (AUC), normalized [19]: −0.4775
area under the viability curve (AUC), normalized [20]: 0.4641
area under the viability curve (AUC), normalized [21]: 0.1047
area under the viability curve (AUC), normalized [22]: −0.7945
area under the viability curve (AUC), normalized [23]: 0.9531
area under the viability curve (AUC), normalized [24]: 1.587
area under the viability curve (AUC), normalized [25]: 5.211
area under the viability curve (AUC), normalized [26]: −1.373
area under the viability curve (AUC), normalized [27]: −0.9259
area under the viability curve (AUC), normalized [28]: 0.9745
area under the viability curve (AUC), normalized [29]: −1.393
normalized viability AUC [30]: negative
AUC value [31]: high

Cc1cnc(NC(=O)Nc2cc(Br)c(C)cc2OC[C@@H]2CNCCO2)cn1 [LY2603618]
area under the viability curve (AUC), normalized [1]: −0.3593
area under the viability curve (AUC), normalized [2]: −0.107
area under the viability curve (AUC), normalized [3]: 1.256
area under the viability curve (AUC), normalized [4]: −1.023
area under the viability curve (AUC), normalized [5]: −0.1902
area under the viability curve (AUC), normalized [6]: −0.9472
area under the viability curve (AUC), normalized [7]: −0.9084
area under the viability curve (AUC), normalized [8]: 1.2209
area under the viability curve (AUC), normalized [9]: 0.01673
area under the viability curve (AUC), normalized [10]: −1.445
area under the viability curve (AUC), normalized [11]: 0.9326
area under the viability curve (AUC), normalized [12]: 0.8771
area under the viability curve (AUC), normalized [13]: −0.6831
area under the viability curve (AUC), normalized [14]: −1.698
area under the viability curve (AUC), normalized [15]: 1.467
area under the viability curve (AUC), normalized [16]: −0.4819
area under the viability curve (AUC), normalized [17]: −0.9616
area under the viability curve (AUC), normalized [18]: −0.3399
area under the viability curve (AUC), normalized [19]: 0.2462
area under the viability curve (AUC), normalized [20]: 0.3141
area under the viability curve (AUC), normalized [21]: 0.2367
area under the viability curve (AUC), normalized [22]: 0
area under the viability curve (AUC), normalized [23]: −0.05048
area under the viability curve (AUC), normalized [24]: 0.1713
area under the viability curve (AUC), normalized [25]: 2.404
area under the viability curve (AUC), normalized [26]: −2.027
area under the viability curve (AUC), normalized [27]: 0.04045
area under the viability curve (AUC), normalized [28]: 0.2305
area under the viability curve (AUC), normalized [29]: 0.7111
normalized viability AUC [30]: negative
AUC value [31]: high
